According to patent publication US20160326098A1, “Pharmaceutically Active Compound for Use as Anti-inflammatory Agent” (Pax Forschung GmbH, priority 2013, published 2016):

Columns and labels:
Format in all cases: in vivo
[1] = Haematocrit in blood, rats with gastric injury without inflammation; details: 1.11 mmol/kg; for percentage of haematocrit in the blood / haematocrit level, low haematocrit data group (severe bleeding with plasma and cell loss): vs control group H; for percentage of haematocrit in the blood: FIG. 18; for haematocrit level, low haematocrit data group (severe bleeding with plasma and cell loss): FIG. 20; for haematocrit level, high haematocrit data group (bleeding with plasma loss): vs sham group H, FIG. 19
Procedure: The medicinal activity of the compound according to the invention and the pharmaceutical composition according to the invention was tested in a series of experiments performed on rats. The experiments were performed on male Sprague-Dawley rats (280-320 g) housed in plastic cages in a thermoneutral environment (21° C.±2° C.) with a 12 h dark-light cycle. The animals, fed on a normal diet with tap water ad libitum, were randomly allocated into experimental groups according to the feeding protocols.
(§1) Further experiments regarding the effect of a compound of formula (I) and a pharmaceutical composition comprising a compound of formula (I), respectively, on gastric injury without inflammation were conducted on rats. 15 animals were randomly allocated into three groups. Group H (n=5) served as sham-operated controls. Samples of all animals were drawn on day 1 of the clinical tests. On day 2 the animals of group I (n=5) were force-fed acetylsalicylic acid (ASS) (1.11 mmol/kg body weight). Group K (n=5) was force-fed 1.11 mmol/kg body weight of the compound according to the invention. Group H only received the respective solvent (25% ethanol in water). One day after the gavage, additional samples were drawn. Fluorescence confocal endomicroscopy was performed to examine the microvasculature and morphologic changes of the mucosa of the distal colon, and full-thickness tissue samples and venous blood samples were taken to determine the biochemical changes in the colon and plasma. The effects were determined by way of measurement of body weight, blood gas analysation and biopsy. ASS was chosen as a comparative example due to its structural similarity and its known activity as anti-inflammatory agent.
On the basis of the haematocrit measurements, the data can be divided into two groups:
a) high haematocrit level, indicating bleeding with plasma loss (FIG. 19); and b) low haematocrit level, indicating severe bleeding with plasma and cell loss (FIG. 20).

myeloperoxidase (MPO) = assay: Tissue myeloperoxidase activity, mice with gastric injury without inflammation; details: gastric and duodenal tissue, one day after treatment with 1.11 mmol/kg, vs control group A, FIGS. 5a/5b
Procedure: […] The homogenate was centrifuged at 4° C. for 20 minutes at 24,000 g, and the supernatant was loaded into centrifugal tubes (Amicon Centricon-100; 100,000-molecular-weight cutoff ultrafilter, Millipore Corporation, Bedford, Mass.). The activity of myeloperoxidase (MPO) was measured on the pellet of the homogenate.
The activity of MPO as a marker of tissue leukocyte infiltration was measured on the pellet of the homogenate. Briefly, the pellet was resuspended in K3PO4 buffer (0.05 M; pH 6.0) containing 0.5% […]. […] The reaction led to the hydrogen peroxide-dependent oxidation of tetramethylbenzidine, which could be detected spectrophotometrically at 450 nm (UV-1601 spetrophotometer; Shimadzu, Kyoto, Japan). Myeloperoxidase activities were measured at 37° C.; the reaction was stopped after 5 minutes by the addition of 0.2 ml of H2SO4 (2 M), and the resulting data were referred to the protein content.
First experiments regarding the effect of the compound of formula (I) and a pharmaceutical composition comprising the compound of formula (I) (clear aqueous solution of compound of formula (I) at pH 4.8), respectively, on gastric injury without inflammation were conducted on mice. […] The effects were determined by way of measurement of body weight, blood gas analysation and biopsy. […]

[2] = test system: High mobility group box protein 1 (HMGB-1); assay: Plasma high mobility group protein B1, rats with gastric injury without inflammation; details: 1.11 mmol/kg, day 3, vs control group H, FIG. 22
Procedure: High mobility group box protein 1 (HMGB-1) measurements in plasma:
Blood samples were drawn into chilled polypropylene tubes containing EDTA (1 mg/ml) and were centrifuged at 1200 g for 10 min at 4° C. The plasma samples were then collected and stored at −70° C. until assay. Plasma concentration of HMGB-1 was measured by a commercially available HMGB-1 ELISA kit (Shino-Test Corporation, Kanagawa, Japan).
as §1, with “Group H only received the respective solvent (25% ethanol in water). One day after the gavage, additional samples were drawn.” left out, “ASS was chosen as a comparative example due to its structural similarity and its known activity as anti-inflammatory agent.” left out

[3] = Body weight, rats with TNBS-induced colitis; details: two days after enema, one day after 1.11 mmol/kg, FIG. 27
Procedure: Colonic inflammation was induced by intracolonic administration of TNBS (2,4,6-trinitrobenzenesulfonic acid) (40 mg/kg in 0.25 ml of 25% aqueous ethanol) through an 8-cm-long soft plastic catheter under transient diethylether anesthesia. In the sham-operated groups, only the vehicle for TNBS was administered. The animals were deprived of food, but not water, for 12 h before the enemas.
The above-described clinical studies were repeated with animals having colitis which was induced as described above. […] Two days after the enema the effects of the treatment were determined by measurement of body weight, blood gas analysis and biopsy. […] Surgery was performed to allow registration of the hemodynamic parameters at 1 h intervals for 6 h (cardiac output [CO] data were measured only at the end of the experiments). […] In addition, fluorescence confocal endomicroscopy was performed to examine the microvasculature and morphologic changes of the mucosa of the distal colon, and full-thickness tissue samples and venous blood samples were taken to determine the biochemical changes in the colon and plasma.

| Compound | percentage of haematocrit in the blood [1] | haematocrit level, low haematocrit data group (severe bleeding with plasma and cell loss) [1] | haematocrit level, high haematocrit data group (bleeding with plasma loss) [1] | myeloperoxidase (MPO) activity (myeloperoxidase (MPO)) | concentration of the high mobility group protein B1 in the plasma [2] | loss of body weight [3] |
| --- | --- | --- | --- | --- | --- | --- |
| CC(=O)Oc1ccccc1C(=O)O [ASS, acetylsalicylic acid, reference compound] | severe change in the haematocrit level | severe drop | increase of the haematocrit level | increased | increased | severe loss in body weight |
| CC(=O)Oc1ccccc1C(=O)NC(CO)(CO)CO [compound according to the invention] | No change in the haematocrit level | no changes could be detected | no change in the haematocrit level | does not further enhance the inflammatory processes | comparable with the concentration in the plasma of the animals in the control group H | No weight loss |
